Measured values taken from the supplement of paper PMC11208160.

experiment: recombinant barcode read abundance after kanamycin selection (control-corrected) (log10(CPM+1)); higher = more efficient recombination; sequences stand for … in AGTGCAGAGAAAATCGGCCAGTTTTCTCTGCCTGCAGTCCGCATGCCGT…AGATTTATGCAGCGGACTGCCTTTCTCCCAAAGTGATAAACCGGACAGTATCATGGACCGGTTTTCCCGGTAATCCGTATTTGCAAGGTTGGTTTCACT; site = the 11-nt target
Outline: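 Reported as log10(CPM+1), each value stands for recombination efficiency. That efficiency is the averaged, control-corrected counts per million of barcodes found at recombinant junctions. Cells from a pooled E. coli library pairing targets with IS621 bridge RNA target-binding loops were plated twice on chloramphenicol/ampicillin LB agar (control) and twice on chloramphenicol/ampicillin/kanamycin with 0.1 mM IPTG.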
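Further: IS621 recombinase and bridge RNA in Escherichia coli cells.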

| Sequence | recombinant barcode read abundance (log10) |
| --- | --- |
| TAGCATACTTGGGTTCTAACCTGTTGCCC (site TAGCATACTTG) | 0.187 |
| AGGAGAACTTGGGTTCTAACCTGTTGCCT (site AGGAGAACTAG) | 1.35 |
| ACATGATCTTGGGTTCTAACCTGTTGCCT (site ACATGATCTAG) | 1.04 |
| AAACGCTCTTGGGTTCTAACCTGTTGCCT (site TAACGCTCTAG) | 0.446 |
| TAGTGGCCTTGGGTTCTAACCTGTTGCCA (site TAGTGGCCTTG) | 0.261 |
| CCGCGGCCTTGGGTTCTAACCTGTTGCCT (site TCGCGGCCTAG) | 0.0221 |
| CTAAGGGCTTGGGTTCTAACCTGTTGCCA (site CTAAGAGCTTG) | 0.122 |
| AGTGAGCCTTGGGTTCTAACCTGTTGCCT (site AGTAAGCCTAG) | 0.344 |
| CACTTCCCTTGGGTTCTAACCTGTTGCTT (site CACTTCCCTAT) | 0.443 |
| ACCTGGCCTTGGGTTCTAACCTGTTGCCT (site ACCTGTCCTAG) | 0.247 |
| CTTCGAGCTTGGGTTCTAACCTGTTGCAG (site CTTCGAGCTCT) | 1.35 |
| GTCGGTACTTGGGTTCTAACCTGTTGCCT (site GTCGGAACTAG) | 0.115 |
| GAAATACCTTGGGTTCTAACCTGTTGCGG (site GAAATACCTCC) | 1.41 |
| GTTTAATCTTGGGTTCTAACCTGTTGCAT (site TGGGTCACTTA) | 0.0197 |
| TCCAACCCTTGGGTTCTAACCTGTTGCTG (site TCCAACCCTCA) | 1.65 |
| ATAGCTACTTGGGTTCTAACCTGTTGCCT (site ATAGCAACTAG) | 0.142 |
| CGTCGGGCTTGGGTTCTAACCTGTTGCAG (site CATCGGGCTCT) | 0.367 |
| CGTGGTCCTTGGGTTCTAACCTGTTGCGT (site CGTGGTCCTAT) | 1.25 |
| TCCAGTACTTGGGTTCTAACCTGTTGCAT (site TCCCGTACTAT) | 0.0322 |
| GCTCGTACTTGGGTTCTAACCTGTTGCAT (site GCTCGTACTAT) | 1.47 |
| ACGGGGCCTTGGGTTCTAACCTGTTGCCG (site GTATATACTAA) | 0.116 |
| AGGAGCCCTTGGGTTCTAACCTGTTGCTT (site AGGAGCCCTAA) | 1.25 |

| Sequence | recombinant barcode read abundance (log10) |
| --- | --- |
| CTCTCCACTTGGGTTCTAACCTGTTGCCA (site CTCTCGACTTG) | 0.0411 |
| CTAGGACCTTGGGTTCTAACCTGTTGCCA (site CTAGGAGCTAG) | 0.233 |
| GTCGTTACTTGGGTTCTAACCTGTTGCCT (site TAGCAATCTTA) | 0.22 |
| CGCGGTCCTTGGGTTCTAACCTGTTGCCT (site CGCGGTCCTAG) | 0.0165 |
| AGCCTCCCTTGGGTTCTAACCTGTTGCCT (site AGACTCCCTAG) | 0.089 |
| CTGGCGTCTTGGGTTCTAACCTGTTGCCT (site CTGGTGTCTAG) | 0.0782 |
| ATGCTAACTTGGGTTCTAACCTGTTGCCT (site GTGCTAACTTG) | 0.471 |
| CACCCCTCTTGGGTTCTAACCTGTTGCCG (site ATGAGGACTAC) | 0.0851 |
| GTTTGGACTTGGGTTCTAACCTGTTGCTG (site GTTTGGACTTA) | 0.195 |
| TATTTCTCTTGGGTTCTAACCTGTTGCCT (site TATTTCTCTAG) | 0.157 |
| GAGCGGACTTGGGTTCTAACCTGTTGCCT (site GAGCTGACTAG) | 0.129 |
| GTAAGTGCTTGGGTTCTAACCTGTTGCCT (site GTAACTGCTAG) | 0.0692 |
| CAGGCGACTTGGGTTCTAACCTGTTGCCT (site CAGGCGGCTAG) | 0 |
| AGGGATCCTTGGGTTCTAACCTGTTGCGG (site AAGTATCCTCC) | 0.032 |
| ACAAGCCCTTGGGTTCTAACCTGTTGCCT (site AGAAGCCCTAG) | 0.0546 |
| ACCCATTCTTGGGTTCTAACCTGTTGCGT (site TAGATAACTCA) | 0.0317 |
| CTCCAGACTTGGGTTCTAACCTGTTGCAG (site CTCCAGACTCT) | 1.87 |
| CAATACACTTGGGTTCTAACCTGTTGCCT (site CCACACACTAG) | 0.0608 |
| CTCTCGTCTTGGGTTCTAACCTGTTGCGG (site GGACGTGCTAG) | 0.127 |
| TAGGCTGCTTGGGTTCTAACCTGTTGCCT (site TAGGCTGCTAG) | 0.177 |
| CACGGGTCTTGGGTTCTAACCTGTTGCTT (site CTCCGGTCTAA) | 0.209 |
| CGCCCTTCTTGGGTTCTAACCTGTTGCCT (site CGCCCTTCTAG) | 0.0296 |

| Sequence | recombinant barcode read abundance (log10) |
| --- | --- |
| TAGCTCCCTTGGGTTCTAACCTGTTGCCC (site TAGCTCCCTGG) | 0.872 |
| CTTTCGTCTTGGGTTCTAACCTGTTGCCT (site CTTTCGTCTAG) | 0.0335 |
| CTCGCTACTTGGGTTCTAACCTGTTGCTT (site CTCGATACTAA) | 0.0927 |
| TAGAGAGCTTGGGTTCTAACCTGTTGCGG (site TAGAGAGCTCC) | 2.09 |
| TCAAAGCCTTGGGTTCTAACCTGTTGCTG (site TCATAGCCTCA) | 0.217 |
| CAAGTGACTTGGGTTCTAACCTGTTGCCT (site TCCTATGCTTA) | 0.129 |
| CACACGCCTTGGGTTCTAACCTGTTGCCT (site CTCACGCCTAA) | 0.0913 |
| GATGGGTCTTGGGTTCTAACCTGTTGCCT (site GCTGGGTCTAG) | 0.015 |
| TGGAGTACTTGGGTTCTAACCTGTTGCCT (site TGGAGTACTAG) | 0.874 |
| GGGCCCGCTTGGGTTCTAACCTGTTGCGG (site GGGCCCGCTCC) | 1.29 |
| TTGATATCTTGGGTTCTAACCTGTTGCCT (site TTGACATCTAG) | 0.264 |
| GCGTATCCTTGGGTTCTAACCTGTTGCCT (site GCGAATCCTAG) | 0.127 |
| AAGGTCGCTTGGGTTCTAACCTGTTGCCT (site AAGGCCGCTAG) | 1.14 |
| CACTTCCCTTGGGTTCTAACCTGTTGCCT (site CACTTCCCTAA) | 0.191 |
| TAGGATACTTGGGTTCTAACCTGTTGCAG (site TAGGATACTTT) | 0.351 |
| TATCGGCCTTGGGTTCTAACCTGTTGCCT (site TAACGGCCTAG) | 0.0814 |
| CGGTCCGCTTGGGTTCTAACCTGTTGCCT (site AGATCCGCTAG) | 0.103 |
| CATCGTACTTGGGTTCTAACCTGTTGCAT (site CATCGTACTAT) | 0.00546 |
| TACCTGTCTTGGGTTCTAACCTGTTGCTT (site TACCCGTCTAA) | 0.251 |
| CTACTATCTTGGGTTCTAACCTGTTGCGC (site TATAACACTCG) | 0.188 |
| TTGAAGCCTTGGGTTCTAACCTGTTGCCT (site CTGAAGCCTAG) | 0.0479 |
| TAGCATACTTGGGTTCTAACCTGTTGCCC (site TAGCATACTCG) | 0.266 |

| Sequence | recombinant barcode read abundance (log10) |
| --- | --- |
| GTTGCCACTTGGGTTCTAACCTGTTGCCT (site GTGGCCACTAG) | 0.0918 |
| ACGGCTCCTTGGGTTCTAACCTGTTGCTG (site ACGCCTCCTCA) | 0.116 |
| GACCAGCCTTGGGTTCTAACCTGTTGCGT (site GACCAGCCTAC) | 2.4 |
| CAGGCGACTTGGGTTCTAACCTGTTGCCT (site CAGGCGCCTAG) | 0.556 |
| TTCCTGACTTGGGTTCTAACCTGTTGCCT (site TTCCTGACTAG) | 1.69 |
| ATCCAGCCTTGGGTTCTAACCTGTTGCCT (site ATCCAGCCTAG) | 1.7 |
| ATACTAACTTGGGTTCTAACCTGTTGCCT (site ATACTAACTAG) | 1.7 |
| GTACGTCCTTGGGTTCTAACCTGTTGCCT (site GTACGTCCTAC) | 0.352 |
| GGGTCTTCTTGGGTTCTAACCTGTTGCAT (site GGGTCTTCTAT) | 0.575 |
| GGACGGCCTTGGGTTCTAACCTGTTGCGT (site GGACGGCCTAC) | 2.53 |
| GAGTCTACTTGGGTTCTAACCTGTTGCTT (site GAATCTACTAA) | 0.0356 |
| ACGGCTCCTTGGGTTCTAACCTGTTGCTG (site ACGGCTCCTCA) | 1.35 |
| TGGTTGTCTTGGGTTCTAACCTGTTGCCT (site TGGTTGTCTAG) | 1.09 |
| GCTGGCCCTTGGGTTCTAACCTGTTGCCT (site GTTGGCCCTAG) | 0.481 |
| CAACCGACTTGGGTTCTAACCTGTTGCCT (site CAACCGTCTAG) | 0.0239 |
| AGGGATCCTTGGGTTCTAACCTGTTGCGG (site AGGGATCCTCC) | 2.7 |
| GCCAACCCTTGGGTTCTAACCTGTTGCTT (site GCCAACCCTAT) | 0.39 |
| CTACGTCCTTGGGTTCTAACCTGTTGCTA (site CTACGTCCTTA) | 0.795 |
| TGCGTCACTTGGGTTCTAACCTGTTGCGT (site TGCGTTCCTAC) | 0.0906 |
| CTCATATCTTGGGTTCTAACCTGTTGCCA (site CTCATATCTTG) | 0.162 |
